The values below come from EP2790511B1 (Merck Sharp & Dohme Corp., priority 2011, dated 2013).

One test deals with T1, Kir1.1 (ROMK1) (Homo sapiens, UniProt P48048).
T1 sequence (P48048 1-391): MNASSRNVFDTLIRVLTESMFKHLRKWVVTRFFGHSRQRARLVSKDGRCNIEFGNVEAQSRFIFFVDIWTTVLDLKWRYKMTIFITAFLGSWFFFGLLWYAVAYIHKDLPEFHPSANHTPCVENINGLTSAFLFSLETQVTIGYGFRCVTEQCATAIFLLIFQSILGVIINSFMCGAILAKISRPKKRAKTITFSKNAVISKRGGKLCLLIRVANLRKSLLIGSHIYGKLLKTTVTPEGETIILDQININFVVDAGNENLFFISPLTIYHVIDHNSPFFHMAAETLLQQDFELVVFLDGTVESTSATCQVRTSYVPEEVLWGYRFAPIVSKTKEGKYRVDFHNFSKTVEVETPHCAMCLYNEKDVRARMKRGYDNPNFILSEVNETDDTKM
Description: Electrophysiology Assay (whole cell voltage clamp, IonWorks Quattro). A general note: The patch-clamp technique gives a direct electrical read-out from membranes.

A further test has as its target T2, hROMK (hKir1.1) (Homo sapiens, UniProt P48048).
T2 construct: expressed in transfected cells
T2 sequence (P48048 1-391): T1 sequence (P48048 1-391)
Description: Thallium Flux Assay. Type of test: cell-based. The essentials: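 HEK293 cells stably expressing hROMK, loaded with FluxOR dye 90 min at ambient temperature, then compound 30 min with 0.3 mM ouabain in probenecid buffer pH 7.4.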

Where [1] appears, read: HEK293 cells stably expressing hROMK (hKir1.1), FLIPR-Tetra, read-out: Thallium Flux IC50.

Molecules are shown by their SMILES. pIC50: −log10 of the molar value. Where two headings read alike, the source gives them in different places.

Description for Kir1.1 (ROMK1): Chinese hamster ovary cells stably expressing Kir1.1 channels were maintained in T-75 flasks in cell culture media in a humidified 10% CO2 incubator at 37 °C. Prior to an experiment, Kir1.1 expression was induced by overnight incubation with 1 mM sodium butyrate. […] After centrifugation, the cell pellet was resuspended in approximately 4.0 mL of bath solution and placed in the IonWorks instrument. The intracellular solution consisted of (in mM): 80 K gluconate, 40 KCl, 20 KF, 3.2 MgCl2, 3 EGTA, 5 Hepes, pH 7.4. Electrical access to the cytoplasm was achieved by perforation in 0.13 mg/mL amphotericin B for 4 min. […] Voltage protocols and current recordings were performed using the IonWorks HT software/hardware system. Currents were sampled at 1 kHz. No correction for liquid junction potentials was used. The test pulse, consisting of a 100 ms step to 0 mV from a holding potential of -70 mV, followed by a 100 ms voltage ramp from -70 mV to +70 mV, was applied before and after a 6 min compound incubation period. Test compounds were prepared by diluting DMSO stock solutions into the bath solution at 3x the final concentration and placed in the instrument in 96-well polypropylene plates. Current amplitudes were measured using the IonWorks software.

One may read the pIC50 as the IC50 on a negative log10 scale, so that one unit is a factor of ten. The compound `N#Cc1cc([C@@H]2CN3CCN(C(=O)Cc4ccc(-n5cnnn5)cn4)C[C@H]3CO2)ccc1F` [Example 38, 2-fluoro-5-[(3R,9aS)-8-{[5-(1H-tetrazol-1-yl)pyridin-2-yl]acetyl}octahydropyrazino[2,1-c][1,4]oxazin-3-yl]benzonitrile] had a pIC50 against Kir1.1 (ROMK1) of 6.92. As to `COc1ccc([C@@H]2CN3CCN(C(=O)Cc4ccc(-n5cnnn5)nc4)C[C@H]3CO2)c(C)c1C#N` [Example 50], the pIC50 on hROMK (hKir1.1) (setting [1]) is 7.10; against Kir1.1 (ROMK1), 6.89. On to `Cc1c([C@H]2CN3CCN(C(=O)Cc4ccc(-n5cnnn5)nc4)C[C@@H]3CO2)ccc(F)c1C#N` [Example 7, 6-fluoro-2-methyl-3-[(3S,9aR)-8-{[6-(1H-tetrazol-1-yl)pvridin-3-yl]acetyl}octahydropyrazino[2,1-c][1,4]oxazin-3-yl]benzonitrile], for which, on Kir1.1 (ROMK1), the pIC50 is 7.15.

Turning to `Cc1c([C@@H]2CN3CCN(C(=O)Cc4ccc(-n5cnnn5)nc4)C[C@H]3CN2)ccc(F)c1C#N` [Example 194, 6-fluoro-2-methyl-3-[(3R,9aR)-8-{[6-(1H-tetrazol-1-yl)pyridin-3-yl]acetyl}octahydro-2H-pyrazino[1,2-a]pyrazin-3-yl]benzonitrile], the pIC50 on hROMK (hKir1.1) (setting [1]) and against Kir1.1 (ROMK1) was 7.22 each time. Consider `Cc1c([C@H]2CN3CCN(C(=O)Cc4ccc(-n5cnnn5)cn4)C[C@H]3CO2)ccc(F)c1C#N` [Example 3, 3-((3S,9aS)-8-(2-(5-(1H-tetrazol-1-yl)pyridin-2-yl)acetyl)octahydropyrazino[2,1-c][1,4]oxazin-3-yl)-6-fluoro-2-methylbenzonitrile], for which the negative logarithm of the IC50 (pIC50) at hROMK (hKir1.1) (setting [1]) is 7.05; at Kir1.1 (ROMK1) it was 7.00.

On to `Cc1c([C@H]2CN3CCN(C(=O)Cc4cnc(-n5cnnn5)nc4)C[C@H]3CO2)ccc(F)c1C#N` [Example 6, 6-fluoro-2-methyl-3[(3S,9aS)-8-{[2-(1H-tetrazol-1-yl)pyrimidin-5-yl]acetyl}octahydropyrazino[2,1-c][1,4]oxazin-3-yl]benzonitrile], for which the pIC50 on hROMK (hKir1.1) (Thallium Flux IC50) is 7.00; against Kir1.1 (ROMK1) it was 7.40. With `Cc1c([C@@H]2CN3CCN(C(=O)Cc4cnc(-n5cnnn5)nc4)C[C@@H]3CO2)ccc(F)c1C#N` [Example 13, 6-fluoro-2-methyl-3-[(3R,9aR)-8-{[2-(1H-tetrazol-1-yl)pyrimidin-5-yl]acetyl}octahydropyrazino[2,1-c][1,4]oxazin-3-yl]benzonitrile], the pIC50 against hROMK (hKir1.1) (Thallium Flux IC50) is 6.96; at Kir1.1 (ROMK1), 7.52. `Cc1c([C@@H]2CN3CCN(C(=O)Cc4ccc(-n5cnnn5)nc4)C[C@@H]3CO2)ccc(F)c1C#N` [Example 8, 6-fluoro-2-methyl-3-[(3R,9aR)-8-{[6-(1H-tetrazol-1-yl)pyridin-3-yl]acetyl}octahydropyrazino[2,1-c][1,4]oxazin-3-yl]benzonitrile] had a pIC50 against Kir1.1 (ROMK1) of 7.40. On to `Cc1c([C@H]2CN3CCN(C(=O)Cc4ccc(-n5cnnn5)nc4)C[C@H]3CO2)ccc(F)c1C#N` [Example 4, 6-fluoro-2-methyl-3-[(3S,9aS)-8-{[6-(1H-tetrazol-1-yl)pyridin-3-yl]acetyl}octahydropyrazino[2,1-c][1,4]oxazin-3-yl]benzonitrile], for which the pIC50 against hROMK (hKir1.1) (Thallium Flux IC50) is 7.15; at Kir1.1 (ROMK1) it was 7.40.

At Kir1.1 (ROMK1), `N#Cc1cc([C@@H]2CN3CCN(C(=O)Cc4ccc(-n5cnnn5)nc4)C[C@H]3CO2)ccc1F` [Example 37, 2-fluoro-5-[(3R,9aS)-8-{[6-(1H-tetrazol-1-yl)pyridin-3-yl]acetyl}octahydropyrazino[2,1-c][1,4]oxazin-3-yl]benzonitrile] gave a pIC50 of 7.70. As to `COc1cc(F)c([C@@H]2CN3CCN(C(=O)Cc4ccc(-n5cnnn5)nc4)C[C@H]3CO2)cc1C#N` [Example 57, 4-fluoro-2-methoxy-5-[(3R,9aS)-8-{[6-(1H-tetrazol-1-vl)pvridin-3-yl]acetyl}octahydropyrazino[2,1-c][1,4]oxazin-3-yl]benzonitrile], the results for the pIC50 at hROMK (hKir1.1) (setting [1]) and against Kir1.1 (ROMK1) were 6.68 and 6.72, respectively. On to `Cc1nc(-n2cnnn2)ncc1CC(=O)N1CCN2C[C@H](c3ccc(F)c(C#N)c3C)OC[C@@H]2C1` [Example 121, 6-fluoro-2-methyl-3-[(3S,9aS)-8-{[4-methyl-2-(1H-tetrazol-1-yl)pyrimidin-5-yl]acetyl}octahydropyrazino[2,1-c][1,4]oxazin-3-yl]benzonitrile], for which the pIC50 against hROMK (hKir1.1) (Thallium Flux IC50) was 6.92; on Kir1.1 (ROMK1), 7.05. For the compound `Cc1c([C@@H]2CN3CCN(C(=O)Cc4ccc(-n5cnnn5)cn4)C[C@H]3CO2)ccc(F)c1C#N` [Example 2, 3-((3R,9aS)-8-(2-(5-(1H-tetrazol-1-yl)pyridin-2-yl)acetyl)octahydropyrazino[2,1-c][1,4]oxazin-3-yl)-6-fluoro-2-methylbenzonitrile], the pIC50 is 6.92 at hROMK (hKir1.1) (setting [1]) and 7.15 against Kir1.1 (ROMK1). Take `COc1c([C@H]2CN3CCN(C(=O)Cc4ccc(-n5cnnn5)nc4)C[C@H]3CO2)ccc(F)c1C#N` [Example 61, 6-fluoro-2-methoxy-3-[(3S,9aS)-8-{[6-(1H-tetrazol-1-vl)pvridin-3-yl]acetyl}octahydropyrazino[2,1-c][1,4]oxazin-3-yl]benzonitrile]: the pIC50 is 6.89 on hROMK (hKir1.1) (setting [1]) and 7.15 on Kir1.1 (ROMK1). `N#Cc1c(F)ccc([C@@H]2CN3CCN(C(=O)Cc4cnc(-n5cnnn5)nc4)C[C@H]3CO2)c1Cl` [Example 136, 2-chloro-6-fluoro-3-[(3R,9aS)-8-{[2-(1H-tetrazol-1-yl)pyrimidin-5-yl]acetyl}octahydropyrazino[2,1-c][1,4]oxazin-3-yl]benzonitrile] showed a pIC50 against hROMK (hKir1.1) (Thallium Flux IC50) of 7.40. On the same count and under the same terms, the same measure for `Cc1c([C@@H]2CN3CCN(C(=O)Cc4ccc(-n5nnnc5C)cn4)C[C@H]3CO2)ccc(F)c1C#N` [Example 162, 6-fluoro-2-methyl-3-[(3R,9aS)-8-{[5-(5-methyl-1H-tetrazol-1-vl)pvridin-2-yl]acetyl}octahydropyrazino[2,1-c][1,4]oxazin-3-yl]benzonitrile]: 6.77. As for `Cc1c(C#N)cccc1[C@@H]1CN2CCN(C(=O)Cc3cnc(-n4cnnn4)nc3)C[C@@H]2CO1` [Example 116, 2-methyl-3-[(3R,9aR)-8-{[2-(1H-tetrazol-1-yl)pyrimidin-5-yl]acetyl}octahydropyrazino[2,1-c] [1,4]oxazin-3-yl]benzonitrile], on hROMK (hKir1.1) (setting [1]), the pIC50 is 6.48.

Regarding `Cc1c([C@H]2CN3CCN(C(=O)Cc4cccc(-n5cnnn5)n4)C[C@H]3CO2)ccc(F)c1C#N` [Example 97, 6-fluoro-2-methyl-3-[(3S,9aS)-8-{[6-(1H-tetrazol-1-yl)pyridin-2-yl]acetyl}octahydropyrazino[2,1-c][1,4]oxazin-3-yl]benzonitrile], the pIC50 against hROMK (hKir1.1) (Thallium Flux IC50) was 6.60.

For `COc1cc([C@@H]2CN3CCN(C(=O)Cc4ccc(-n5cnnn5)nc4)C[C@H]3CO2)ccc1C#N` [Example 41, 2-methoxy-4-[(3R,9aS)-8-{[6-(1H-tetrazol-1-yl)pyridin-3-yl]acetyl}octahydropyrazino[2,1-c][1,4]oxazin-3-yl]benzonitrile], the pIC50 at hROMK (hKir1.1) (setting [1]) is 6.64. Compound `Cc1c([C@@H]2CN3CCN(C(=O)Cc4ncc(-n5cnnn5)cc4Cl)C[C@@H]3CO2)ccc(F)c1C#N` [Example 154, 3-[(3R,9aR)-8-{[3-chloro-5-(1H-tetrazol-1-yl)pyridin-2-yl]acetyl}octahydropyrazino[2,1-c][1,4]oxazin-3-yl]-6-fluoro-2-methylbenzonitrile] had a pIC50 against hROMK (hKir1.1) (Thallium Flux IC50) of 6.70.
